Data set [1] can be described thus: Compound cytotoxicity, XTT-based colorimetric assay. In kind it is cell-based. The conditions noted are these: human; uninfected MT2 cells, day 4, XTT assay. Here is the method: Compound cytotoxicity and the corresponding CC50 values were determined using the same protocol as described in the antiviral assay except that uninfected cells were used. Cytotoxicity was assessed on day 4 in uninfected MT2 cells by using a XTT (2,3-bis[2-Methoxy-4-nitro-5-sulfophenyl]-2H-tetrazolium-5-carboxyanilide inner salt)-based colorimetric assay (Sigma-Aldrich, St Louis, Mo).

The subject of data set [2] is recombinant NL4-3 virus (nef section replaced with Renilla luciferase gene) in MT-2 cells. The experiment in a line: HIV cell culture assay (antiviral activity, luciferase readout). In kind it is cell-based. The conditions noted are these: NL43, MT-2 cells infected for 4-5 days with recombinant NL4-3 Renilla luciferase virus. As for the experimental part: HIV cell culture assay—MT-2 cells, 293T cells and the proviral DNA clone of NL4-3 virus were obtained from the NIH AIDS Research and Reference Reagent Program. MT-2 cells were propagated in RPMI 1640 media supplemented with 10% heat inactivated fetal bovine serum (FBS), […]. The 293T cells were propagated in DMEM media supplemented with 10% heat inactivated FBS, […]. A recombinant NL4-3 proviral clone, in which a section of the nef gene was replaced with the Renilla luciferase gene, was used to make the reference virus used in these studies. The recombinant virus was prepared through transfection of the recombinant NL4-3 proviral clone into 293T cells using Transit-293 Transfection Reagent from Mirus Bio LLC (Madison, WI). Supernatent was harvested after 2-3 days and the amount of virus present was titered in MT-2 cells using luciferase enzyme activity as a marker by measuring luciferase enzyme activity. Luciferase was quantitated using the EnduRen Live Cell Substrate from Promega (Madison, WI). Antiviral activities of compounds toward the recombinant virus were quantified by measuring luciferase activity in MT-2 cells infected for 4-5 days with the recombinant virus in the presence of serial dilutions of the compound.
The 50% effective concentration (EC50) was calculated by using the exponential form of the median effect equation where (Fa)=1/[1+(ED50/drug conc.)m] (Johnson VA, Byington RT. Infectivity Assay. In Techniques in HIV Research. ed. Aldovini A, Walker BD. 71-76. New York: Stockton Press. 1990). The 50% inhibitory concentration (EC50) was calculated by using the exponential form of the median effect equation where percent inhibition=1/[1+(EC50/drug concentration)m], where m is a parameter that reflects the slope of the concentration-response curve.

In turn, `CC(F)(F)c1ccc2c(=O)n(-c3ccc(Cl)c4c(NS(C)(=O)=O)nn(CC(F)F)c34)c([C@H](Cc3cc(F)cc(F)c3)NC(=O)Cn3nc(C(F)F)c4c3C(F)(F)[C@@H]3C[C@H]43)nc2c1` [Example 17, N—((S)-1-(3-(4-chloro-1-(2,2-difluoroethyl)-3-(methylsulfonamido)-1H-indazol-7-yl)-7-(1,1-difluoroethyl)-4-oxo-3,4-dihydroquinazolin-2-yl)-2-(3,5-difluorophenyl)ethyl)-2-((3bS,4aR)-3-(difluoromethyl)-5,5-difluoro-3b,4,4a,5-tetrahydro-1H-cyclopropa[3,4]cyclopenta[1,2-c]pyrazol-1-yl)acetamide] yielded a CC50 at 4 day in data set [1] above 1000 nM. Further, in data set [2], the EC50 was 0.083 nM.

As to `CCCCOc1ccc2c(=O)n(-c3ccc(Cl)c4c(NS(C)(=O)=O)nn(C)c34)c([C@H](Cc3cc(F)cc(F)c3)NC(=O)Cn3nc(C(F)F)c4c3C(F)(F)[C@@H]3C[C@H]43)nc2c1` [Example 11, N—((S)-1-(7-butoxy-3-(4-chloro-1-methyl-3-(methylsulfonamido)-1H-indazol-7-yl)-4-oxo-3,4-dihydroquinazolin-2-yl)-2-(3,5-difluorophenyl)ethyl)-2-((3bS,4aR)-3-(difluoromethyl)-5,5-difluoro-3b,4,4a,5-tetrahydro-1H-cyclopropa[3,4]cyclopenta[1,2-c]pyrazol-1-yl)acetamide], the 50% cytotoxic concentration (CC50) at 4 day in data set [1] is above 1000 nM. The EC50 in data set [2] was determined as 0.208 nM.

In the case of `CC(C)COc1ccc2c(=O)n(-c3ccc(Cl)c4c(NS(C)(=O)=O)nn(C)c34)c([C@H](Cc3cc(F)cc(F)c3)NC(=O)Cn3nc(C(F)F)c4c3C(F)(F)[C@@H]3C[C@H]43)nc2c1` [Example 12, N—((S)-1-(3-(4-chloro-1-methyl-3-(methylsulfonamido)-1H-indazol-7-yl)-7-isobutoxy-4-oxo-3,4-dihydroquinazolin-2-yl)-2-(3,5-difluorophenyl)ethyl)-2-((3bS,4aR)-3-(difluoromethyl)-5,5-difluoro-3b,4,4a,5-tetrahydro-1H-cyclopropa[3,4]cyclopenta[1,2-c]pyrazol-1-yl)acetamide], the CC50 at 4 day in data set [1] is above 1000 nM. Further, the EC50 in data set [2] was determined as 0.109 nM.

In turn, `CC(C)(C)c1ccc2c(=O)n(-c3ccc(Cl)c4c(NS(=O)(=O)C5CC5)nn(CC(F)F)c34)c([C@H](Cc3cc(F)cc(F)c3)NC(=O)Cn3nc(C(F)F)c4c3C(F)(F)[C@@H]3C[C@H]43)nc2c1` [Example 27, N—((S)-1-(7-(tert-butyl)-3-(4-chloro-3-(cyclopropanesulfonamido)-1-(2,2-difluoroethyl)-1H-indazol-7-yl)-4-oxo-3,4-dihydroquinazolin-2-yl)-2-(3,5-difluorophenyl)ethyl)-2-((3bS,4aR)-3-(difluoromethyl)-5,5-difluoro-3b,4,4a,5-tetrahydro-1H-cyclopropa[3,4]cyclopenta[1,2-c]pyrazol-1-yl)acetamide] had a CC50 at 4 day in data set [1] above 1000 nM. For the same molecule, the EC50 in data set [2] is 0.61 nM.

In data set [1], `COc1ccc2c(=O)n(-c3ccc(Cl)c4c(NS(C)(=O)=O)nn(C)c34)c([C@H](Cc3cc(F)cc(F)c3)NC(=O)Cn3ccc(C(C)C)n3)nc2n1` [Example 35, (S)—N-(1-(3-(4-chloro-1-methyl-3-(methylsulfonamido)-1H-indazol-7-yl)-7-methoxy-4-oxo-3,4-dihydropyrido[2,3-d]pyrimidin-2-yl)-2-(3,5-difluorophenyl)ethyl)-2-(3-isopropyl-1H-pyrazol-1-yl)acetamide] yielded a CC50 at 4 day above 1000 nM. The EC50 in data set [2] was 0.235 nM.

In data set [1], `COc1ccc2c(=O)n(-c3ccc(Cl)c4c(NS(C)(=O)=O)nn(C)c34)c([C@H](Cc3cc(F)cc(F)c3)NC(=O)Cn3ccc(C4CCC4)n3)nc2c1` [Example 7, (S)—N-(1-(3-(4-chloro-1-methyl-3-(methylsulfonamido)-1H-indazol-7-yl)-7-methoxy-4-oxo-3,4-dihydroquinazolin-2-yl)-2-(3,5-difluorophenyl)ethyl)-2-(3-cyclobutyl-1H-pyrazol-1-yl)acetamide] displayed a CC50 at 4 day above 1000 nM. For the same molecule, the EC50 in data set [2] was 0.899 nM.

The values above are taken from patent US20240374598A1, “INHIBITORS OF HUMAN IMMUNODEFICIENCY VIRUS REPLICATION” (ViiV HEALTHCARE UK (NO.5) LIMITED, priority 2018, published 2024).
